Assay: Storage stability at room temperature and 100% relative humidity
Assay type: physicochemical
Conditions: 200 mg stored for a month at room temperature and 100% relative humidity
Description: For the assessment of stability, 200 mg of the Example A6 product (60% w/w QS in EC) was stored for a month at room temperature and 100% relative humidity, alongside a sample of the as-received pure QS.

C=C[C@H]1C[N@@]2CC[C@H]1C[C@H]2[C@H](O)c1ccnc2ccc(OC)cc12 [quinine sulphate]
powder physical appearance and flow properties after storage: signs of partial caking and a lower degree of powder flowability
